One assay relates to BRCA1. Nature of the assay: DDR gene expression (qPCR) in HCC70 cells. It counts as cell-based. The procedure: HCC70 (ATCC CRL-2315) cells in 96-well plate format were treated with either DMSO or compound 1 for 2 hours. After compound treatment was done for 2 hours, the plates were washed by PBS once, then fresh culture medium was added to the cells and cells were incubated for 4, 10, 22, 46, 70 hours respectively. At each time point (4, 10, 22, 46, 70 hours after 2 h washout) RNA extraction was done according to manufacturer's instructions as follows. RNA Extraction and qPCR was done using the Ambion Cell to CT kit (Cat #AM1728). Briefly, cells were removed from the incubator, washed once in PBS, lysed by adding 50 μL Lysis Solution from the kit, mixed 5 times and 5 μL Stop Solution was added to the well. All actions were done using RNAase and DNAase free labware.
The Reverse Transcription Reaction mix was then prepared. All reagents were kept in an ice-water bath during the whole operation. […]
The setting of QuantStudio®5 Real-Time qPCR System was shown in the following figure and the fluorescence gain was set at 1×.
Data Analysis was done according to the QuantStudio5 Software. Threshold of signal was calculated by QuantStudio 5 software using the default setting. The relative gene expression was evaluated using the following formulas: […]
Gene expression was detected using qPCR with the Taqman (Applied Biosystems, ThermoFisher Scientific; Carlsbad, Calif.) probe listed in Table 7. […]

Another assay has as its system HCC70 tumors. The assay is described as follows: HCC70 mouse xenograft model of triple-negative breast cancer. It counts as in vivo, CB-17 SCID female mice. The note with it: compared to vehicle control. The text has this:
To test the efficacy of the compounds in vivo, studies were done in mouse xenografts. For all studies, general procedures for animal care and housing were done in accordance with the standard, Commission on Life Sciences, National Research Council, Standard operating procedures (SOPs) of Pharmaron, Inc (Beijing, China). The mice were kept in laminar flow rooms at constant temperature and humidity with 3-5 mice in each cage with bedding changed once weekly. Animals were housed in polycarbonate cage which is in the size of 300×180×150 mm^3 and in an environmentally monitored, well-ventilated room maintained at a temperature of (22±3° C.) and a relative humidity of 40%-70% on a 12 hour:12 hour light:dark cycle with full spectrum lighting. […]
Each mouse was inoculated subcutaneously on the right flank with HCC70 tumor cells (5×10^6) in 0.1 ml of RPMI-1640 Medium and Matrigel mixture (1:1 ratio) for tumor development. […] All study animals were monitored not only tumor growth but also behavior such as mobility, food and water consumption (by cage side checking only), body weight (BW), eye/hair matting and any other abnormal effect. Any mortality and/or abnormal clinical signs were recorded.
The measurement of tumor size was conducted twice weekly with a caliper and recorded. […]
Protocol-required measurements and observations were recorded manually onto excel spread sheets. […]

The structures appear in SMILES notation.

Consider `C=CC(=O)Nc1ccc(C(=O)N2CC[C@@H](Nc3ncc(Cl)c(OC)n3)C2)cc1` [Compound 1, (R)-N-(4-(3-((5-chloro-4-methoxypyrimidin-2-yl)amino)pyrrolidine-1-carbonyl)phenyl)acrylamide], for which, in the assay on BRCA1 (2 hours treatment then washout, qPCR), the “levels of BRCA1 expression” value is reported as “reduction in levels of BRCA1 expression”. The “time of strongest reduction in gene expression (BRCA1)” value in the assay on BRCA1 (after treatment (post-washout)) amounted to 10 h.

For `C=CC(=O)Nc1ccc(C(=O)N2CC[C@@H](Nc3ncc(C#N)cn3)C2)cc1` [Compound 4, (R)-N-(4-(3-((5-cyanopyrimidin-2-yl)amino)pyrrolidine-1-carbonyl)phenyl)acrylamide], the T/C in the assay on HCC70 tumors (20 mg/kg intravenously biweekly for 14 days) is given as −37%; in the assay on HCC70 tumors (25 mg/kg intravenously biweekly for 14 days), −39%.

Source of the values: patent publication US20230074545A1, “TREATMENT OF CANCER WITH CDK12/13 INHIBITORS” (Kinnate Biopharma Inc., priority 2019, published 2023).
